Experimental findings from US6169181A, “Compounds useful to treat retroviral infections” (Pharmacia & Upjohn Company, priority 1998, dated 2001) are described below.

In assay [1] the target is T1, HIV-1 protease (Human immunodeficiency virus type 1 group M subtype B, UniProt P04585). The experiment in a line: biochemical. The settings on record: Table I, read-out: Protease % Inhib; for inhibition at 0.37 µM: Dose 0.370 μM; for inhibition at 1.1 µM: Dose 1.100 μM; for inhibition at 3.3 µM: Dose 3.300 μM. In a few lines:
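A substrate biotinylated at the N-terminal arginine and FITC-labelled at the C-terminal lysine was incubated with HIV-1 protease (10 μl of 0.1 μM) and compound for 1 h in the dark at room temperature. Buffer was 0.1 M sodium acetate pH 5.5, 1.0 M NaCl, 0.05% NP-40. Labelled product was separated from substrate using streptavidin beads and filtration, and the fluorescence gave percent inhibition.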

In assay [2] the target is T1, HIV-1 protease. Nature of the assay: biochemical. The settings on record: read-out: HIV Protease FITC Assay Ki. In a few lines:
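Biotinylated, FITC-labelled peptide substrate cleaved in 0.1 M sodium acetate pH 5.5, 1.0 M NaCl, 0.05% NP-40, room temperature. Filtered labelled product read by fluorescence; nonlinear least-squares fit.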

Structures are written as SMILES. Read-outs that look alike come from different tables or passages of the source.

By Ki is commonly meant a measure of affinity in units of concentration, obtained from inhibition or displacement. Take `CCC(CC1CCOCC1)c1cc(O)c(C(c2cccc(NS(=O)(=O)c3nccn3C)c2)C2CC2)c(=O)o1` (stereo not drawn) [Example 145, N-(3-{Cyclopropyl-[6-(1-(tetrahydropyran-4-ylmethyl)-propyl)-4-hydroxy-2-oxo-2H-pyran-3-yl]-methyl}-phenyl)-1-methyl-1H-imidazole-2-sulfonamide]: on HIV-1 protease [1], the inhibition at 0.123 µM is 73.6%, the inhibition at 0.37 µM was 89.8%, the inhibition at 1.1 µM stood at 99.7% and the inhibition at 3.3 µM stood at 94.8%. Further, at HIV-1 protease [1], the inhibition at 10 µM was found to be 96.8% and the inhibition at 30 µM is 88%. For the same compound, the Ki on HIV-1 protease [2] (Table I) was found to be 0.49 nM.
As for `CCC(CC1CCCOC1)c1cc(O)c(C(c2cccc(NS(=O)(=O)c3cccc4cccnc34)c2)C2CC2)c(=O)o1` (stereo not drawn) [Example 145A, N-(3-[Cyclopropyl[4-hydroxy-2-oxo-6-[1-[(tetrahydro-2H-pyran-3-yl)methyl]propyl]-2H-pyran-3-yl]methyl]phenyl]-8-quinolinesulfonamide], on HIV-1 protease [1], the inhibition at 0.123 µM stood at 109%, the inhibition at 0.37 µM came out at 111%, the inhibition at 1.1 µM was 119% and the inhibition at 3.3 µM came out at 115%. Besides, on HIV-1 protease [1], the inhibition at 10 µM was found to be 113% and the inhibition at 30 µM turned out to be 114%. Also, the Ki on HIV-1 protease [2] (Table I) came to 1.1 nM.
As for `CCC(CC1CCCOC1)c1cc(O)c(C(c2cccc(NS(=O)(=O)c3cn(C)cn3)c2)C2CC2)c(=O)o1` (stereo not drawn) [Example 145B, N-(3-[Cyclopropyl[4-hydroxy-2-oxo-6-[1-[(tetrahydro-2H-pyran-3-yl)methyl]propyl]-2H-pyran-3-yl]methyl]phenyl]-1-methyl-1H-imidazole-4-sulfonamide], on HIV-1 protease [1], the inhibition at 0.123 µM was 81.8%, the inhibition at 0.37 µM was found to be 88.4%, the inhibition at 1.1 µM is 96.5% and the inhibition at 3.3 µM came to 87.8%. Also, at HIV-1 protease [1], the inhibition at 10 µM is 102% and the inhibition at 30 µM was 84.5%. Besides, the Ki on HIV-1 protease [2] (Table I) was 1.24 nM.
In the case of `CC[C@H](Cc1ccccc1)c1cc(O)c(C(c2cccc(NS(=O)(=O)c3nc4ccccc4[nH]3)c2)C2CC2)c(=O)o1` (stereo partly drawn) [Example 146, N-(3-{Cyclopropyl-[6-(1-(R)-ethylphenethyl)-4-hydroxy-2-oxo-2H-pyran-3-yl]-methyl}-phenyl)-benzimidazole-2-sulfonamide], at HIV-1 protease [1], the inhibition at 0.123 µM was determined as 68.1%, the inhibition at 0.37 µM came to 87.4%, the inhibition at 1.1 µM was determined as 103% and the inhibition at 3.3 µM is 103%. In addition, on HIV-1 protease [1], the inhibition at 10 µM was found to be 103% and the inhibition at 30 µM amounted to 102%. At HIV-1 protease [2] (Table I), the Ki was determined as 0.69 nM.
As to `CC[C@H](Cc1ccccc1)c1cc(O)c(C(c2cccc(NS(=O)(=O)c3ncc[nH]3)c2)C2CC2)c(=O)o1` (stereo partly drawn) [Example 147, N-(3-{Cyclopropyl-[6-(1-(R)-ethylphenethyl)-4-hydroxy-2-oxo-2H-pyran-3-yl]-methyl}-phenyl)-1H-imidazole-2-sulfonamide], at HIV-1 protease [1], the inhibition at 0.123 µM was found to be 77.5%, the inhibition at 0.37 µM turned out to be 103%, the inhibition at 1.1 µM is 112% and the inhibition at 3.3 µM came to 110%. Further, at HIV-1 protease [1], the inhibition at 10 µM stood at 114% and the inhibition at 30 µM stood at 108%. Moreover, the Ki at HIV-1 protease [2] worked out at 1 nM.
Consider `CCC(Cc1ccccc1)c1cc(O)c(C(c2cccc(NS(=O)(=O)c3ccc([N+](=O)[O-])cc3)c2)C2CC2)c(=O)o1` (stereo not drawn) [Example 150, N-(3-{Cyclopropyl-[6-(1-ethylphenethyl)-4-hydroxy-2-oxo-2H-pyran-3-yl]-methyl}-phenyl)-4-nitrobenzenesulfonamide], for which, on HIV-1 protease [1], the inhibition at 0.123 µM is 78.4%, the inhibition at 0.37 µM worked out at 96.5%, the inhibition at 1.1 µM is 100% and the inhibition at 3.3 µM was determined as 103%. Further, on HIV-1 protease [1], the inhibition at 10 µM worked out at 107% and the inhibition at 30 µM amounted to 109%. In addition, the Ki at HIV-1 protease [2] (Table I) turned out to be 5.9 nM.
